Source: US10675317B2, “Use of ginseng extract, ginsenoside and ginsenoside derivative in the preparation of medicine or health care product for treating cytomegalovirus infection disorders” (priority 2015, dated 2020)
Where two headings read alike, the source gives them in different places.

How the values were obtained:
Type in all cases: in vivo, Kunming mice
HCMV infected mice [1] = assay: IL-2 level in serum of HCMV infected mice (ELISA kit); conditions: for IL-2 level compared with the positive drug control group (in words): ganciclovir 45.5 mg/kg/d as comparator; for IL-2 concentration: 21 days
Protocol: (§1) The mice were injected with HCMV10^−3 (0.1 ml/mouse) through the caudal vein of mouse tails; 0.9% normal saline is injected to the normal control group, 0.1 ml/piece; and intragastric administration is started according to the determined dosage on the second day of infection, with 21 days of medication.
Selecting six mice in each group randomly for sampling, 40 min later after the last administration, picking eyeballs to take blood, and collecting the blood by a centrifugal tube Performing high-speed centrifugation for 5 min at 3000 r/min after blood coagulation, and taking the serum. The IL-2 in the serum is measured according to the manual of an ELISA kit.
1L-2, namely interleukin-2, is also named T cell growth factor (TCGF), is a cell factor with wide biological activity, which is generated by activated CD4+Th1 cells, and can promote the proliferation of Th0 and CTL, thus being an important factor for regulating and controlling immune responses.

HCMV infected mice [2] = conditions: for Level of serum hemolysin antibodies compared with the positive drug control group (in words): HCMV infected mice, ganciclovir 45.5 mg/kg/d as comparator; for Hemolysin (OD value): serum of HCMV infected mice, 540 nm, 21 days
Protocol: as §1
40 min later after the last administration, picking eyeballs to take blood, collecting serum, diluting the serum for 100 times with normal saline, uniformly mixing 1 mL of the diluted serum, 0.5 mL of 5% chicken erythrocyte suspension and 0.5 mL of 10% complement (guinea pig serum), incubating for 30 min In 37° C. incubator, setting 0° C. refrigerator for 30 min to stop the reaction. Centrifugating, taking the supernatant, and then measuring the optical density (OD value) at 540 nm by spectrophotometer.

HCMV infected mice [3] = assay: Survival rate and weight of HCMV infected mice; conditions: for Toxic symptoms, death and weight growth of treated HCMV infected mice (in words): 21 days of intragastric administration, compared with model group; for Average animal weight (g) Termination of treatment: HCMV infected mice; for Average animal weight (g) Termination of treatment / Animal number (n) Termination of treatment: 21 days; for Animal number (n) Termination of treatment: surviving of 10 HCMV infected mice
Protocol: 1.3 Virus standard strain HCMVADI69 and the proliferation of species are introduced in October 1999 from Virus Seed Room of Virus Institute in Chinese Academy of Preventive Medicine. […] HEL cultural supernatant reaching +++−++++ in the cell lesions is discarded and lightly washed for 3 times by PBS; double distilled water is added; freeze-thawing is performed for 3 times at −20° C.; vigorous blowing and beating are performed; 10,000 r/min centrifugation is performed at 4° C. for 20 min; and the supernatant is collected to obtain the standard virus strain.
as §1
(§2) During the experiment. Animals were weighed and the thymus and spleen were weighed on the 21st day of administration, and their indices (thymus index, spleen index, weight of thymus and spleen organs per 10 g body weight (mg)) were measured.
Recording the number of dead animals in the experimental process.
All the mice are subjected to the medicines continuously for 21 days in the whole experimental process.

HCMV infected mice [4] = assay: Spleen and thymus gland indexes of HCMV infected mice; conditions: for Spleen indexes / Thymus gland indexes / Effect on weight of the immune organs of HCMV infected mice (in words): day 21; for Effect on weight of the immune organs of HCMV infected mice (in words): thymus glands and spleens
Protocol: as §1, §2
Thymus glands and spleens are important immune organs, with the organ indexes reflecting the strength of immune functions of organisms to a certain degree. The thymus glands have the main functions of generating T-lymphocytes and secreting thymosin, and mainly take part in cellular immunity; and abundant lymphocytes and macrophages are contained in the spleens. The weight of the thymus glands and the spleens is related to functions thereof as well as the quantity of immune cells therein, and the height depends on the proliferation degree of the lymphocytes therein.

[5] = high-dosage group 0.3 mg/kg/d intragastric
[6] = low-dosage group 0.012 mg/kg/d intragastric
[7] = medium-dosage group 0.06 mg/kg/d intragastric
[8] = HCMV infected mice, high-dosage group 0.3 mg/kg/d intragastric
[9] = HCMV infected mice, low-dosage group 0.012 mg/kg/d intragastric
[10] = HCMV infected mice, medium-dosage group 0.06 mg/kg/d intragastric

| Compound | IL-2 level compared with the model group (in words) (HCMV infected mice [1]) | IL-2 level compared with the positive drug control group (in words) (HCMV infected mice [1]) | IL-2 concentration (HCMV infected mice [1]; [5]) [pg/mL] | IL-2 concentration (HCMV infected mice [1]; [6]) [pg/mL] | IL-2 concentration (HCMV infected mice [1]; [7]) [pg/mL] | Level of serum hemolysin antibodies compared with the positive drug control group (in words) (HCMV infected mice [2]) | Hemolysin (OD value) (HCMV infected mice [2]; [5]) | Hemolysin (OD value) (HCMV infected mice [2]; [6]) | Hemolysin (OD value) (HCMV infected mice [2]; [7]) | Toxic symptoms, death and weight growth of treated HCMV infected mice (in words) (HCMV infected mice [3]) | Average animal weight (g) Termination of treatment (HCMV infected mice [3]; [5]) [g] | Average animal weight (g) Termination of treatment (HCMV infected mice [3]; [6]) [g] | Average animal weight (g) Termination of treatment (HCMV infected mice [3]; [7]) [g] | Animal number (n) Termination of treatment (HCMV infected mice [3]; [5]) | Animal number (n) Termination of treatment (HCMV infected mice [3]; [6]) | Animal number (n) Termination of treatment (HCMV infected mice [3]; [7]) | Effect on weight of the immune organs of HCMV infected mice (in words) (HCMV infected mice [4]) | further results |
| --- | --- | --- | --- | --- | --- | --- | --- | --- | --- | --- | --- | --- | --- | --- | --- | --- | --- | --- |
| CC(C)=CCC[C@](C)(O)[C@H]1CC[C@]2(C)[C@@H]1[C@H](O)C[C@@H]1[C@@]3(C)CC[C@H](O[C@@H]4O[C@H](CO)[C@@H](O)[C@H](O)[C@H]4O[C@@H]4O[C@H](CO)[C@@H](O)[C@H](O)[C@H]4O)C(C)(C)[C@@H]3CC[C@]12C [Ginsenoside rg3, 20(R)-ginsenoside Rg3] | higher than those of the model group | superior to that of the positive drug control group | 28.64 ± 4.66 | 27.02 ± 6.39 | 27.19 ± 5.60 | superior to that of the positive drug control group | 0.18 ± 0.03 | 0.15 ± 0.08 | 0.16 ± 0.05 | mild toxic symptom, less death and good weight growth | 26.6 ± 1.83 | 25.1 ± 0.11 | 25.8 ± 0.54 | 8 | 6 | 6 | obvious weight increasing effect | Spleen indexes and thymus gland indexes compared with the model group (in words) (HCMV infected mice [4]; HCMV infected mice): significantly different from those of the model group; Spleen indexes (HCMV infected mice [4]; [8]): 0.061 ± 0.021; Thymus gland indexes (HCMV infected mice [4]; [8]): 0.031 ± 0.009; Spleen indexes (HCMV infected mice [4]; [9]): 0.056 ± 0.045; Thymus gland indexes (HCMV infected mice [4]; [9]): 0.027 ± 0.011; Spleen indexes (HCMV infected mice [4]; [10]): 0.057 ± 0.013; Thymus gland indexes (HCMV infected mice [4]; [10]): 0.029 ± 0.021 |
| 20(R)-ginsenoside Rg3 8-N-butyrate [Ginsenoside rg3 derivatives] | higher than those of the model group | superior to that of the positive drug control group | 29.32 ± 4.09 | 27.99 ± 5.38 | 28.62 ± 4.21 | superior to that of the positive drug control group | 0.19 ± 0.11 | 0.17 ± 0.08 | 0.18 ± 0.07 | mild toxic symptom, less death and good weight growth | 27.7 ± 1.84 | 26.4 ± 0.18 | 27.1 ± 0.49 | 9 | 6 | 7 | obvious weight increasing effect | – |
| Nc1nc(O)c2ncn(COC(CO)CO)c2n1 [Positive drug control group, ganciclovir, reference compound] | – | – | – | – | – | – | – | – | – | – | – | – | – | – | – | – | – | IL-2 concentration (HCMV infected mice [1]; ganciclovir 45.5 mg/kg/d): 24.54 ± 2.66 pg/mL; Hemolysin (OD value) (HCMV infected mice [2]; ganciclovir 45.5 mg/kg/d): 0.11 ± 0.04 OD value; Average animal weight (g) Termination of treatment (HCMV infected mice [3]; ganciclovir 45.5 mg/kg/d): 26.9 ± 3.97 g; Survival number, weight growth and symptom expression compared with the test drug groups (in words) (HCMV infected mice [3]; ganciclovir 45.5 mg/kg/d): totally approximate to those of the large-dosage groups; Animal number (n) Termination of treatment (HCMV infected mice [3]; ganciclovir 45.5 mg/kg/d): 8 |
